According to ChEMBL document CHEMBL1800071, “Switching reversibility to irreversibility in glycogen synthase kinase 3 inhibitors: clues for specific design of new compounds” (J Med Chem, 2011):
Calls of active or inactive are those of the source. The calls are words filed in the database; no cut-off is given here.

Legend:
[1] = target: T1, Glycogen synthase kinase-3 beta (Homo sapiens, UniProt P49841); assay: Inhibition of human recombinant GSK3-beta using prephosphorylated polypeptide substrate after 30 mins by Glow-type luminescence assay in presence of 1 uM ATP
Target sequence in this assay (P49841 whole entry): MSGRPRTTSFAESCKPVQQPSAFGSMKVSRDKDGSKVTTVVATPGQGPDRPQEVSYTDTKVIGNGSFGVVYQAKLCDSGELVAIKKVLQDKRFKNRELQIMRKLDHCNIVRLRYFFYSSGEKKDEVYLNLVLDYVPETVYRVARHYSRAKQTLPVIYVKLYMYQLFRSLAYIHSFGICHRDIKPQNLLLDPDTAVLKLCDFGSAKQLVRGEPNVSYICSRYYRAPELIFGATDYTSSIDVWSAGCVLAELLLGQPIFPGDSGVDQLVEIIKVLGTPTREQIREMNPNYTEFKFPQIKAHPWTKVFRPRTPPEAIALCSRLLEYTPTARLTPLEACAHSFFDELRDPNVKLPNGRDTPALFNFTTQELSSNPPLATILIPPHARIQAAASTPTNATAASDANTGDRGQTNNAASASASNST

[2] = target: T1, Glycogen synthase kinase-3 beta; assay: Irreversible inhibition of human recombinant GSK3-beta using prephosphorylated polypeptide substrate preincubated with enzyme for 5 to 10 mins measured after 30 mins by Glow-type luminescence assay in presence of 1 uM ATP
Target sequence in this assay (P49841 whole entry, looked up): as the sequence (P49841 whole entry) above

[3] = target: T1, Glycogen synthase kinase-3 beta; assay: Inhibition of GSK3-beta using GS1 as substrate and [gamma-32P]ATP after 20 mins by radiometric assay
Target sequence in this assay (P49841 whole entry): as above

[4] = target: T1, Glycogen synthase kinase-3 beta; assay: Reversible inhibition of human recombinant GSK3-beta using prephosphorylated polypeptide substrate preincubated with enzyme for 5 to 10 mins measured after 30 mins by Glow-type luminescence assay in presence of 1 uM ATP
Target sequence in this assay (P49841 whole entry, looked up): as the sequence (P49841 whole entry) above

[5] = target: T1, Glycogen synthase kinase-3 beta; assay: Covalent binding affinity to human recombinant GSK3-beta by MALDI-TOF analysis
Target sequence in this assay (P49841 whole entry, looked up): as the sequence (P49841 whole entry) above

[6] = Inhibition of GSK3 in granule cerebellar neurons assessed as decrease of tau phosphorylation at Ser396 at 25 uM after 16 hrs by Western blot analysis
[7] = Inhibition of GSK3 in granule cerebellar neurons assessed as […] of tau phosphorylation at 25 uM after 16 hrs by Western blot analysis
Rattus norvegicus [8] = organism: Rattus norvegicus; assay: Displacement of [3H]-CGP39653 from NMDA glutaminergic receptor in rat cerebral cortex at 10 uM; type: tissue-based
[9] = target: Adrenergic receptor alpha-2 (Rattus norvegicus) (UniProt P22086+P19328+P22909); assay: Displacement of [3H]-RX821002 from adrenergic A2 receptor in rat cerebral cortex at 10 uM; type: tissue-based
[10] = target: Muscarinic acetylcholine receptor (Rattus norvegicus) (UniProt P08482+P08483+P08485+P08911+P10980); assay: Displacement of [3H]-QNB from muscarinic receptor in rat cerebral cortex at 10 uM; type: tissue-based
[11] = target: Mitogen-activated protein kinase 1 (Rattus norvegicus) (UniProt P63086); assay: Inhibition of rat recombinant ERK42 expressed in Escherichia coli using MBP as substrate and [gamma-33P]ATP at 10 uM by scintillation counting
Bos taurus = organism: Bos taurus; assay: Inhibition of bovine thymus protein kinase p56 using poly GT as substrate and [gamma-33P]ATP at 10 uM by scintillation counting
Rattus norvegicus [12] = organism: Rattus norvegicus; assay: Displacement of [3H]-AMPA from AMPA glutaminergic receptor in rat cerebral cortex at 10 uM; type: tissue-based
[13] = target: Dual specificity mitogen-activated protein kinase kinase 1 (Oryctolagus cuniculus) (UniProt P29678); assay: Inhibition of rabbit recombinant MEK1 expressed in Escherichia coli using inactivated MAP kinase as substrate and [gamma-33P]ATP at 10 uM by scintillation counting
[14] = target: Proto-oncogene tyrosine-protein kinase Src (Homo sapiens) (UniProt P12931); assay: Inhibition of Src kinase at 10 uM
[15] = test system: Calcium/calmodulin-dependent protein kinase type II (Rattus norvegicus); assay: Inhibition of rat brain CAM kinase 2 using autocamtide as substrate and [gamma-33P] at 10 uM by scintillation counting
[16] = target: Epidermal growth factor receptor (Homo sapiens) (UniProt P00533); assay: Inhibition of EGFR kinase in human A431 cells using poly GAT as substrate and [gamma-33P]ATP at 10 uM by scintillation counting; type: cell-based; conditions: A-431
Rattus norvegicus [17] = organism: Rattus norvegicus; assay: Displacement of [3H]cytisine from alpha-BGTX-insensitive neuronal nicotinic receptor in rat cerebral cortex at 10 uM; type: tissue-based
[18] = Inhibition of protein kinase A at 100 uM
[19] = target: Tyrosine-protein kinase ABL1 (Mus musculus) (UniProt P00520); assay: Inhibition of mouse recombinant Abl expressed in Escherichia coli assessed as phosphopoly Gt formation using poly Gt as substrate at 10 uM by fluorescence polarization method
[20] = target: Insulin receptor (Homo sapiens) (UniProt P06213); assay: Inhibition of human recombinant IRK using poly GT as substrate and [gamma-33P]ATP at 10 uM by scintillation counting
[21] = target: D(2) dopamine receptor (Homo sapiens) (UniProt P14416); assay: Displacement of [3H]spiperone form human recombinant D2 receptor expressed in CHO cells at 10 uM; type: cell-based
Rattus norvegicus [22] = organism: Rattus norvegicus; assay: Displacement of [125I]-alpha-bungarotoxin from alpha-BGTX-sensitive neuronal nicotinic receptor in rat cerebral cortex at 10 uM; type: tissue-based
[23] = target: D(3) dopamine receptor (Homo sapiens) (UniProt P35462); assay: Displacement of [3H]spiperone form human recombinant D3 receptor expressed in CHO cells at 10 uM; type: cell-based
Rattus norvegicus [24] = organism: Rattus norvegicus; assay: Displacement of [3H]serotonine from 5-HT receptor in rat cerebral cortex at 10 uM; type: tissue-based

Mitogen-activated protein kinase 1 (Rattus norvegicus), sequence (P63086 whole entry): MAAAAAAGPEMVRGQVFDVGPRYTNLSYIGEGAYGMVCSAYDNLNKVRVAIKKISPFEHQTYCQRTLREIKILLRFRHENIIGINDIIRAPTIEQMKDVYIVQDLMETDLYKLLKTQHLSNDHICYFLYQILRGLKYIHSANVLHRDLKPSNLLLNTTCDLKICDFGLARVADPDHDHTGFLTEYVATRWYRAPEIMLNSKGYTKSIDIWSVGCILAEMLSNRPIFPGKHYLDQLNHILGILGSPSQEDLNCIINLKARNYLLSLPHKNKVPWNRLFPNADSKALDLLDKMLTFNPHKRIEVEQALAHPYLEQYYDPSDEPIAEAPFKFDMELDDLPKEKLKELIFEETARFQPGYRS
Tyrosine-protein kinase ABL1 (Mus musculus), sequence (P00520 whole entry): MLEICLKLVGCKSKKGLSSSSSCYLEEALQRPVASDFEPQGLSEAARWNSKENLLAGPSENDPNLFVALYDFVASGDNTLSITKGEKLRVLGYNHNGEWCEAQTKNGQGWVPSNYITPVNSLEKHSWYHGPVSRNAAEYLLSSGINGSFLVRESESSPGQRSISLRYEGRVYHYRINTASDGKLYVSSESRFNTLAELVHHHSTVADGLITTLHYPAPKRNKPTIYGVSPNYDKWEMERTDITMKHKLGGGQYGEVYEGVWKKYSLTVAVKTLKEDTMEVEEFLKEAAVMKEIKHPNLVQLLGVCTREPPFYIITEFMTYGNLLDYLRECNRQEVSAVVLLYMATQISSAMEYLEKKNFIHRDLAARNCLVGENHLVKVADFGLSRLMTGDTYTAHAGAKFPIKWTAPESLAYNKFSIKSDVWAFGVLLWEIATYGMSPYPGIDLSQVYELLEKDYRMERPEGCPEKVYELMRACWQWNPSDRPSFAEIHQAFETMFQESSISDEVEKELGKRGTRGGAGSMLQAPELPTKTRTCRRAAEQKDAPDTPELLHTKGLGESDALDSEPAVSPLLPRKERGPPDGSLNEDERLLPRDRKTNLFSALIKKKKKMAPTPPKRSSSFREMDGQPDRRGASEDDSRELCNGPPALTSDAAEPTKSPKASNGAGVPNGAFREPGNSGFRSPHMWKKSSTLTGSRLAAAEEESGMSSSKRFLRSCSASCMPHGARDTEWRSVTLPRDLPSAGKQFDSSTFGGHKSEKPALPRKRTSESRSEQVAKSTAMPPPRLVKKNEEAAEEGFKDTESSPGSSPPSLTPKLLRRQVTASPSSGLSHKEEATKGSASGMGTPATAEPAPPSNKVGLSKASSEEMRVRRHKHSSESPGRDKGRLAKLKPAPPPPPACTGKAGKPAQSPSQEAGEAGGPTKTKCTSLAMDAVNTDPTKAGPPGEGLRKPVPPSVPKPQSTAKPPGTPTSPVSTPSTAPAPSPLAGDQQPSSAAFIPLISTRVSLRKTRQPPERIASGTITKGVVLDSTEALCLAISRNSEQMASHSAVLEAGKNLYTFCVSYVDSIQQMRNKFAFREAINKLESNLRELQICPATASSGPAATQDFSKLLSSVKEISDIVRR
D(2) dopamine receptor (Homo sapiens), sequence (P14416 whole entry): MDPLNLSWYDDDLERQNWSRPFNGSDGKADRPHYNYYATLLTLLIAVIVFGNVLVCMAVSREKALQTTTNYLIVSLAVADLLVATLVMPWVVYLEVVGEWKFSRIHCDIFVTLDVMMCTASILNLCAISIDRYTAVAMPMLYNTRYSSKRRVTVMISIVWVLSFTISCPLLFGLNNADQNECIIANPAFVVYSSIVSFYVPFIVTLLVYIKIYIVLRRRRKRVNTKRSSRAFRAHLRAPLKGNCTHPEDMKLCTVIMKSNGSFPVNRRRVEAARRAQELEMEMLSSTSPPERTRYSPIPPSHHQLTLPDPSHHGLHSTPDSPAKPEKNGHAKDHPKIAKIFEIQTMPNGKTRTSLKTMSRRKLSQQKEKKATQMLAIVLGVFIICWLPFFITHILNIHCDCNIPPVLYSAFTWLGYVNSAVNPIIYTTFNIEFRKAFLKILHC
Epidermal growth factor receptor (Homo sapiens), sequence (P00533 whole entry): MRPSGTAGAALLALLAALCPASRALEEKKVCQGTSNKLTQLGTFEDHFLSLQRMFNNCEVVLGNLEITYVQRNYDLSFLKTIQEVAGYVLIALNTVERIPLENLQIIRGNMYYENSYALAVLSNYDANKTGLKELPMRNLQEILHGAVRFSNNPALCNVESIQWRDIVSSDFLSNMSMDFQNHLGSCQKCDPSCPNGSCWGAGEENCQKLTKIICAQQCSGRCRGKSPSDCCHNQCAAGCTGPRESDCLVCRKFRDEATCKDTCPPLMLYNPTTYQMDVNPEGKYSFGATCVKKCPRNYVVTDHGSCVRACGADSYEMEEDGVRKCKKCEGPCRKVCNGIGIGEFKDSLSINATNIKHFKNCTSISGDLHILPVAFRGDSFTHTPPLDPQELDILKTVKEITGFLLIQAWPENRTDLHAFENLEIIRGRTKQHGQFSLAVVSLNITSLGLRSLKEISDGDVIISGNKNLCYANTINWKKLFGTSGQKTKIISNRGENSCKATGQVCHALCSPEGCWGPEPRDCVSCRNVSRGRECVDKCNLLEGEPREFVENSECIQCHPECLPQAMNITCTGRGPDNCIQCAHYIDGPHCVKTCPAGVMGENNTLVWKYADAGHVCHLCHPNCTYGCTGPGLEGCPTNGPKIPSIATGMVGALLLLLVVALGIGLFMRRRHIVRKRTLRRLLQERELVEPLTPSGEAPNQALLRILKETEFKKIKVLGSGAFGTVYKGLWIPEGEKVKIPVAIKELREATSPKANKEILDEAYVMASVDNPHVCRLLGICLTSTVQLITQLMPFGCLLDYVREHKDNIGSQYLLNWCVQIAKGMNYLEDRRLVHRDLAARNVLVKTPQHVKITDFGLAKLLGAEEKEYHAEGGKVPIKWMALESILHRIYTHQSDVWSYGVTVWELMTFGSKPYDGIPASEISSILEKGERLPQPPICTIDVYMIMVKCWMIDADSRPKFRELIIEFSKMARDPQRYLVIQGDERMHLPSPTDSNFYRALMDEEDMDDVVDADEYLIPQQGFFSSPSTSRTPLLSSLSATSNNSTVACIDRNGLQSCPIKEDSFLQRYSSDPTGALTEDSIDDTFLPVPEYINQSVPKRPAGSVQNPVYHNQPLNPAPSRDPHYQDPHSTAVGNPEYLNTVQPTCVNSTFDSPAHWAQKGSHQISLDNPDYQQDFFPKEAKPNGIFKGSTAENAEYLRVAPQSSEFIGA
D(3) dopamine receptor (Homo sapiens), sequence (P35462 whole entry): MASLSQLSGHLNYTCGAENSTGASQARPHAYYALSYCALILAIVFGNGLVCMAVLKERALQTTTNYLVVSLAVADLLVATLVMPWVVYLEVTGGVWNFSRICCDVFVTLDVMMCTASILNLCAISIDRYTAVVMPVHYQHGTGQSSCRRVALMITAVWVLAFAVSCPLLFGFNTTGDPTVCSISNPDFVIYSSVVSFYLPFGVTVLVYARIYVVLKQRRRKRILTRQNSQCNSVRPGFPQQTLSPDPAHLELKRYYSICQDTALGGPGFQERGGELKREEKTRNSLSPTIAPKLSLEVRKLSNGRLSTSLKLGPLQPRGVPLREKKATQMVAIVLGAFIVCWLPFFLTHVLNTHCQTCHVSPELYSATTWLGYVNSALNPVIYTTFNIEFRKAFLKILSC
Proto-oncogene tyrosine-protein kinase Src (Homo sapiens), sequence (P12931 2-536 limits assumed): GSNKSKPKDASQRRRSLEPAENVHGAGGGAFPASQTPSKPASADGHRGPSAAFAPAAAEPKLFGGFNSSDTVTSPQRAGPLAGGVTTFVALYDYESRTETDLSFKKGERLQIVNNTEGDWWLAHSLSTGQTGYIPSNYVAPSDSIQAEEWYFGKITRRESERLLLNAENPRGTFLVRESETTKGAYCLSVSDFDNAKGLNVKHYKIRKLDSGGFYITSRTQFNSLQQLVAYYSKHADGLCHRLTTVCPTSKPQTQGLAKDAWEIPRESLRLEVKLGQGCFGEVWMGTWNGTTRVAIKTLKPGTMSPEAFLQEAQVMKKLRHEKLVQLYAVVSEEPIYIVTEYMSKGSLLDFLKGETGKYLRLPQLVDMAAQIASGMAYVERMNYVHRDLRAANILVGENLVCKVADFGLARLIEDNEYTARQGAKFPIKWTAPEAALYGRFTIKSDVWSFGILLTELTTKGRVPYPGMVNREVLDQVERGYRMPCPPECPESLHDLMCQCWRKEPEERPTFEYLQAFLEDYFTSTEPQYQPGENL

O=C(CBr)C1=C(c2c[nH]c3ccccc23)C(=O)NC1=O
IC50 [1]: 0.047 µM | inhibition [2]: Active

O=C(c1ccc(C(F)(F)F)cc1)C(Br)Br
IC50 [3]: 5 µM

O/N=C(\CBr)c1ccc(Br)cc1
IC50 [3]: > 100 µM

O=C(c1ccccn1)C(Br)Br
IC50 [3]: 2.5 µM

N#Cc1cccc(C(=O)C(Br)Br)c1
IC50 [3]: 1 µM

Nc1ncnc2c1ncn2C(=O)CCl
IC50 [1]: 13.4 µM

O=C(c1ccc(I)cc1)C(Br)Br
IC50 [3]: 2 µM

CCSCC(=O)c1ccc(Br)cc1
IC50 [3]: > 10 µM

CC(=O)C1=C(c2c[nH]c3ccccc23)C(=O)NC1=O
inhibition [4]: Active | IC50 [1]: 4.47 µM

O=C(CSCc1ccccc1)c1ccc(Br)cc1
IC50 [3]: > 10 µM

CC(=O)OCC(=O)c1ccc(Br)cc1
IC50 [3]: > 100 µM

CC(=O)C1=C(c2cn(C)c3ccccc23)C(=O)NC1=O
Activity [5]: Active | inhibition [4]: Active | IC50 [1]: 0.89 µM

O=C(CSc1ccccc1)c1ccc(Br)cc1
IC50 [3]: > 100 µM

[O-][S+](CCl)c1ccc(Br)cc1 (stereo unspecified)
IC50 [3]: > 100 µM

[Cl-].[Li+]
inhibition [6]: Active | inhibition [7]: Active

O=C(CBr)c1ccc(Br)cc1
inhibition (Rattus norvegicus [8]): < 10% | inhibition [9]: < 10% | inhibition [10]: < 10% | inhibition [11]: < 10% | inhibition (Bos taurus): 29% | inhibition (Rattus norvegicus [12]): < 10% | inhibition [13]: < 10% | inhibition [14]: 38% | inhibition [15]: < 10% | inhibition [16]: 18% | inhibition (Rattus norvegicus [17]): 16% | inhibition [18]: inactive | inhibition [19]: < 10% | inhibition [20]: < 10% | inhibition [21]: < 10% | inhibition (Rattus norvegicus [22]): < 10% | inhibition [23]: < 10% | inhibition (Rattus norvegicus [24]): < 10%

COc1ccc(-n2cnc3cc(C(C)=O)ccc32)cc1
IC50 [1]: > 10 µM

O=C(CCl)c1ccc(Cl)cc1
inhibition (Rattus norvegicus [8]): 15% | inhibition [9]: < 10% | inhibition [10]: < 10% | inhibition [11]: < 10% | inhibition (Bos taurus): < 10% | inhibition (Rattus norvegicus [12]): < 10% | inhibition [13]: < 10% | inhibition [14]: 19% | inhibition [15]: 16% | inhibition [16]: < 10% | inhibition (Rattus norvegicus [17]): < 10% | inhibition [18]: inactive | inhibition [19]: < 10% | inhibition [20]: < 10% | inhibition [21]: < 10% | inhibition (Rattus norvegicus [22]): < 10% | inhibition [23]: < 10% | inhibition (Rattus norvegicus [24]): < 10%

O=C(CBr)c1ccc(C(F)(F)F)cc1
IC50 [3]: 5 µM

CC(=O)n1cnc2c(N)ncnc21
IC50 [1]: > 50 µM

O=C(CO)c1ccc(Br)cc1
IC50 [3]: > 100 µM

Cn1cc(C2=C(C(=O)CBr)C(=O)NC2=O)c2ccccc21
Activity [5]: Active | IC50 [1]: 0.005 µM | inhibition [2]: Active

O=C(CN1C(=O)c2ccccc2C1=O)c1ccc(Br)cc1
IC50 [3]: 100 µM

N#Cc1ccc(C(=O)C(Br)Br)cc1
IC50 [3]: 1.5 µM

Nc1c(Br)cc(C(=O)C(Br)Br)cc1Br
IC50 [3]: 0.5 µM

CO/N=C(\CBr)c1ccc(Br)cc1
IC50 [3]: 50 µM

COc1ccc(-n2cnc3cc(C(=O)CBr)ccc32)cc1
IC50 [1]: 0.58 µM | inhibition [2]: Active

NCC(=O)c1ccc(Br)cc1
IC50 [3]: 100 µM

O=C(CBr)c1ccc(N2CCOCC2)cc1
IC50 [3]: 6 µM
